Test results: PubChem BioAssay AID1963966 (Molecular Pharmacology Branch, DTP, NCI, 2024)
Values joined by “and” are separate entries in the source; they are usually repeats but may differ in a detail not shown here. Equal values may be shown once.

Tested on: 935938-334-R-J1-PDC spheroids with HUVEC/MSC, viability
Experiment: Anticancer human tumor 935938-334-R-J1-PDC patient-derived small intestine adenocarcinoma cell line growth inhibition [PI3K]
Details: for viability, T/C: stronger effect = lower value
Text: Combinatorial screen of targeted agents with the PI3K inhibitors inavolisib, alpelisib, duvelisib, and copanlisib in multi-cell type tumor spheroids
A high-throughput screen of multi-cell type tumor spheroids was designed to identify active combinations of targeted small molecules and PI3K pathway inhibitors. Complex spheroids include a stromal component modeled by human endothelial cells (HUVEC) and fibroblasts modeled by human mesenchymal stem cells (MSCs). The concentration ranges selected for each drug and investigational agent were based upon clinically achievable concentrations if the clinical Cmax of the agent was known.
Compounds. The drugs and investigational agents: inavolisib (NSC800729), alpelisib (NSC765974), duvelisib (NSC772469), copanlisib (NSC816437), ipatasertib (NSC767898), afuresertib (NSC778305), talazoparib (NSC767125), sapanisertib (NSC764658), selumetinib (NSC741078), tovorafenib (DAY101, NSC766906), vemurafenib (NSC761431), ravoxertinib (NSC781343), sotorasib (NSC818433), MRTX1133 (NSC 836407), abemaciclib (NSC 768073), palbociclib (NSC758247), venetoclax (NSC 766270), SY5609 (NSC837396), enzalutamide (NSC755605), and darolutamide (NSC825331), were obtained from the National Cancer Institute (NCI) Developmental Therapeutics Program Chemical Repository. The FDA-approved anticancer drug set is available from the NCI Developmental Therapeutics Program. […] The stock solutions were prepared in dimethyl sulfoxide (DMSO, Sigma-Aldrich, St. Louis, MO, cat. D2650) at 800-fold the tested concentration and stored at -70 degrees C prior to their use. All drugs and investigational agents were tested over a range starting from a high concentration at or near the clinical Cmax and decreasing in half-log increments. If the clinical Cmax for an agent had not been determined, the highest concentration tested was 10 microM.
Cell Culture. All cells were maintained in an incubator at 37 degrees C and 5% CO2 with 95% humidity. The PDC lines were cultured according to standard operating procedures established by the NCI PDMR (https://pdmr.cancer.gov/sops/default.htm). All PDCs were thawed and cultured in Matrigel-coated flasks prepared with a working solution of 1X Ham's F-12 nutrient mix, without supplementation (Invitrogen, Waltham, MA, cat. 11765054), 100 U/mL penicillin-streptomycin (Invitrogen, cat. 15140122), and 2.5% Matrigel (Corning Inc., Corning, NY, cat. 354248) for the first three passages. The 354836-022-R-J1-PDC, 475296-252-R-J1-PDC, and 997726-040-R-J2-PDC lines were cultured in 6A media, which includes advanced DMEM/F-12 (Thermo Fisher Scientific, cat. 12634028), 10 mM HEPES (Thermo Fisher Scientific, cat. 15630080), 1X GlutaMAX supplement (Thermo Fisher Scientific, cat. 35050061), 0.1 mg/mL primocin (InvivoGen, San Diego, CA, cat. ant-pm-2), 10% defined fetal bovine serum, heat inactivated (HyClone Laboratories Inc., Logan, UT, cat. SH30070.03HI), 50% L-WRN conditioned media (ATCC, cat. CRL-3276), 1.25 mM N-Acetyl-L-cysteine (Sigma-Aldrich, cat. A9165), 10 mM nicotinamide (Sigma-Aldrich, cat. N0636), 1X B-27 supplement (Thermo Fisher Scientific, cat. 17504044), 1X N-2 supplement (Thermo Fisher Scientific, cat. 17502048), and 10 microM Y-27632 dihydrochloride (Tocris Bioscience, Bristol, United Kingdom, cat. 1254). The 624824-186-R-J2-PDC line was cultured in 6C/Colon 1B media, which includes all 6A media components plus 50 ng/mL human EGF recombinant protein (Thermo Fisher Scientific, cat. PHG0311). […]
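Also: compound exposure lasted seven days before viability was read.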
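For viability, T/C in this document: percent of vehicle DMSO treated spheroid viability so 100% = untreated.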

Q: Which IC50 (curve of first compound, second compound 0.0316 µM) does the source give for C#Cc1c(F)ccc2cc(O)cc(-c3ncc4c(N5CC6CCC(C5)N6)nc(OCC56CCCN5CC(F)C6)nc4c3F)c12 (stereo not drawn) + Cc1nc(NC(=O)N2CCCC2C(N)=O)sc1-c1ccnc(C(C)(C)C(F)(F)F)c1 here?
A: The IC50 was 987 nM.

Q: What about the IC50 (curve of first compound, second compound 0.1 µM) of the same compound?
A: The IC50 was 1870 nM.

Q: What about the IC50 (curve of first compound, second compound 0.316 µM) of the same compound?
A: Its IC50 is 1490 nM.

Q: And the IC50 (curve of first compound, second compound 1 µM)?
A: Its IC50 is 528 nM.

Q: What about the IC50 (curve of first compound, second compound 3.16 µM) of the same compound?
A: The IC50 was 48.9 nM.

Q: What about the IC50 (curve of first compound, second compound 10 µM) of the same compound?
A: The IC50 was under 31.6 nM.

Q: What about the viability, T/C (second compound 0.0316 µM, first compound 0.0316 µM) of the same compound?
A: The viability, T/C was 101%.

Q: And the viability, T/C (second compound 0.0316 µM, first compound 0.1 µM)?
A: Its viability, T/C is 89.2%.

Q: What about the viability, T/C (second compound 0.0316 µM, first compound 0.316 µM) of the same compound?
A: The viability, T/C was 107%.

Q: What about the viability, T/C (second compound 0.0316 µM, first compound 1 µM) of the same compound?
A: The viability, T/C was 49.4%.

Q: And the viability, T/C (second compound 0.0316 µM, first compound 3.16 µM)?
A: The viability, T/C was 36.8%.

Q: And the viability, T/C (second compound 0.0316 µM, first compound 10 µM)?
A: The viability, T/C was 32.7%.

Q: And the viability, T/C (second compound 0.1 µM, first compound 0.0316 µM)?
A: The viability, T/C was 88.8%.

Q: And the viability, T/C (second compound 0.1 µM, first compound 0.1 µM)?
A: Its viability, T/C is 73.6%.

Q: What about the viability, T/C (second compound 0.1 µM, first compound 0.316 µM) of the same compound?
A: Its viability, T/C is 79%.

Q: What about the viability, T/C (second compound 0.1 µM, first compound 1 µM) of the same compound?
A: Its viability, T/C is 60%.

Q: And the viability, T/C (second compound 0.1 µM, first compound 3.16 µM)?
A: The viability, T/C was 40.7%.

Q: What about the viability, T/C (second compound 0.1 µM, first compound 10 µM) of the same compound?
A: The viability, T/C was 27.6%.

Q: What about the viability, T/C (second compound 0.316 µM, first compound 0.0316 µM) of the same compound?
A: The viability, T/C was 94.4%.

Q: What about the viability, T/C (second compound 0.316 µM, first compound 0.1 µM) of the same compound?
A: Its viability, T/C is 80%.

Q: And the viability, T/C (second compound 0.316 µM, first compound 0.316 µM)?
A: Its viability, T/C is 77.3%.

Q: What about the viability, T/C (second compound 0.316 µM, first compound 1 µM) of the same compound?
A: The viability, T/C was 59.5%.

Q: What about the viability, T/C (second compound 0.316 µM, first compound 3.16 µM) of the same compound?
A: Its viability, T/C is 33.4%.

Q: What about the viability, T/C (second compound 0.316 µM, first compound 10 µM) of the same compound?
A: Its viability, T/C is 29.4%.

Q: What about the viability, T/C (second compound 1 µM, first compound 0.0316 µM) of the same compound?
A: The viability, T/C was 76.5%.

Q: And the viability, T/C (second compound 1 µM, first compound 0.1 µM)?
A: The viability, T/C was 85.9%.

Q: What about the viability, T/C (second compound 1 µM, first compound 0.316 µM) of the same compound?
A: The viability, T/C was 60.4%.

Q: What about the viability, T/C (second compound 1 µM, first compound 1 µM) of the same compound?
A: The viability, T/C was 35.4%.

Q: What about the viability, T/C (second compound 1 µM, first compound 3.16 µM) of the same compound?
A: The viability, T/C was 29.3%.

Q: What about the viability, T/C (second compound 1 µM, first compound 10 µM) of the same compound?
A: Its viability, T/C is 21.1%.

Q: What about the viability, T/C (second compound 3.16 µM, first compound 0.0316 µM) of the same compound?
A: The viability, T/C was 51.5%.

Q: What about the viability, T/C (second compound 3.16 µM, first compound 0.1 µM) of the same compound?
A: Its viability, T/C is 46.5%.

Q: What about the viability, T/C (second compound 3.16 µM, first compound 0.316 µM) of the same compound?
A: The viability, T/C was 40.7%.

Q: What about the viability, T/C (second compound 3.16 µM, first compound 1 µM) of the same compound?
A: The viability, T/C was 30.8%.

Q: And the viability, T/C (second compound 3.16 µM, first compound 3.16 µM)?
A: Its viability, T/C is 25.7%.

Q: And the viability, T/C (second compound 3.16 µM, first compound 10 µM)?
A: Its viability, T/C is 23.4%.

Q: And the viability, T/C (second compound 10 µM, first compound 0.0316 µM)?
A: The viability, T/C was 47.8%.

Q: And the viability, T/C (second compound 10 µM, first compound 0.1 µM)?
A: The viability, T/C was 33.2%.

Q: What about the viability, T/C (second compound 10 µM, first compound 0.316 µM) of the same compound?
A: The viability, T/C was 36.8%.

Q: And the viability, T/C (second compound 10 µM, first compound 1 µM)?
A: The viability, T/C was 27.6%.

Q: What about the viability, T/C (second compound 10 µM, first compound 3.16 µM) of the same compound?
A: The viability, T/C was 17.3%.

Q: And the viability, T/C (second compound 10 µM, first compound 10 µM)?
A: Its viability, T/C is 16%.

Q: CCCS(=O)(=O)Nc1ccc(F)c(C(=O)c2c[nH]c3ncc(-c4ccc(Cl)cc4)cc23)c1F was tested. Which viability, T/C (compound 0.0316 µM) did it give?
A: Its viability, T/C is 98.8% [middle of 4 runs].

Q: What about the viability, T/C (compound 0.1 µM) of the same compound?
A: Its viability, T/C is 111% [middle of 4 runs].

Q: And the viability, T/C (compound 0.316 µM)?
A: The viability, T/C was 108% [middle of 4 runs].

Q: What about the viability, T/C (compound 3.16 µM) of the same compound?
A: The viability, T/C was 110% [middle of 4 runs].

Q: And the viability, T/C (compound 10 µM)?
A: The viability, T/C was 31% [middle of 4 runs].

Q: And the IC50 (curve of compound)?
A: The IC50 was 7.38 µM [middle of 4 runs].

Q: What does the source list for Cn1ncc(Cl)c1-c1cc(C(=O)NC(CN)Cc2cccc(F)c2)sc1Cl (stereo not drawn)?
A: viability, T/C (compound 0.1 µM): 84.4% [middle of 4 runs]; viability, T/C (compound 0.316 µM): 71.1% [middle of 4 runs]; viability, T/C (compound 1 µM): 60.5% [middle of 4 runs]; viability, T/C (compound 3.16 µM): 49.1% [middle of 4 runs]; IC50 (curve of compound): > 10000 nM and 1850 nM
